{
  "source": "patent US20040052837A1",
  "about": "“Lipid conjugated anti-cancer drugs and methods of use thereof” (priority 2002, published 2004)",
  "system": "phospholipase A2",
  "details": "SUVs with 18:0,18:2-PC 80/20 mol %, Tris pH 8.8, 20 min",
  "data": [
    {"smiles": "CCCCCCCCCCCCCCCCCC(=O)OCC(COP(=O)([O-])OCC[N+](C)(C)C)OC(=O)CCCc1ccc(N(CCCl)CCCl)cc1", "note": "(stereo not shown) [18:0, Chlorambucil-PC]", "values": [
      {"measurement": "hydrolysis by phospholipase A2", "result": "total"}
    ]}
  ]
}
